Assay results: patent US20120149724A1, “MODULATING ENDOGENOUS BETA-ENDORPHIN LEVELS” (THE GENERAL HOSPITAL CORPORATION, priority 2009, published 2012)
“Also recorded” adds a separate entry of the source.

Experiments:
[1] = system: C57BL/6 male mice; test: analgesic thresholds (von Frey and hot plate assays) over a tail radiation or mock regimen; type: in vivo
Experimental: Example 4 describes analgesic response changes in response to tail-only radiation exposure. To obtain the data shown in FIGS. 4A and 4B, 8-week old male mice were either exposed to a dose of 5 Gy/day gamma radiation or mock exposed for 6 weeks. Mechanical (FIG. 4A) and thermal (FIG. 4B) analgesic thresholds were measured twice per week over the course of the regimen, and for 2 weeks after the regimen. The threshold testing was performed in the morning before the radiation treatment or mock exposure. The mock exposed mice were either injected with saline 15 minutes before the testing, or with 10 mg/kg naloxone 15 minutes before the testing. The radiation treatment group was divided into 2 subgroups. The first group was given saline injections 15 minutes before the testing. The second group was given a 10 mg/kg naloxone injection 15 minutes before the testing. For all groups of mice, blood was drawn once per week for beta-endorphin measurement. Data for FIG. 4A was obtained from C57BL/6 male mice, and there were 10 mice per treatment group. Data for FIG. 4B was obtained from C57BL/6 male mice, and there were 10 mice per treatment group. An asterisk indicates p<0.05 by t-test. FIGS. 4A and 4B show both mechanical and thermal analgesic thresholds increase over the radiation regimen similarly to plasma beta-endorphin fluctuations (Figure C).
In this assay of mechanical nociceptive threshold, mice were placed on an elevated wire mesh grid, and the plantar surface of the left hind paw was poked with fibers calibrated to different pressures. Mice were each poked 10 times at each pressure at a rate of 1/second, starting with the lowest pressure and stopping at the pressure that elicits a positive response for a given mouse, thus indicating the mechanical nociceptive threshold for that mouse. A positive response was 2/10 responses of paw flinching, fluttering, or licking immediately following the poke. These experiments were performed in mice undergoing daily tail radiation or mock tail radiation as follows.
Prior to the start of the tail radiation regimen, mice were habituated over one week by spending 1 hour/day in individual wire mesh cages on the elevated wire mesh grid. In addition, prior to each measurement, mice spent 30 minutes on the wire mesh grid to habituate before measurements were taken. Two measurements of baseline thresholds were taken on two different days prior to the start of the radiation regimen. During the radiation regimen and for 2 weeks following the end of the regimen, mice were tested twice per week on two different, non-consecutive days. Mice receiving mock treatment and 1 subgroup of mice receiving tail radiation were injected with saline (ip) 15 minutes prior to testing. […]

[2] = system: tail-irradiated C57BL/6 mice; test: Straub Tail scoring in tail-irradiated mice; type: in vivo; conditions: 10 mg/kg ip after the 17th tail irradiation (5 Gy/day); rescored 20 minutes after injection
Experimental: To obtain the data shown in FIG. 3C, after the 17th irradiation dose, the mice were measured for Straub Tail scores and the irradiated mice were divided into two subgroups. The first subgroup was injected with 10 mg/kg naloxone ip. The second subgroup was injected with saline ip. Straub Tail scores were then rescored 20 minutes after the injection. FIG. 3C uses data obtained by Wild type female mice. […] The saline injection has no effect on the Straub Tail phenotype.
Mice undergoing tail radiation or mock treatment were assessed for Straub Tail according to a slightly modified method of Zarrindast, M. R., Ghadimi, M., Ramezani-Tehrani, B., and Sahebgharani, M. Effect of GABA Receptor Agonists or Antagonists on Morphine-induced Straub Tail in Mice. […] 2006; 116(8): 963-73, by which Straub tail is scored on a scale of 0-2 according to the angle of elevation of the tail from the horizontal plane (0=tail relaxed and no elevation; 1=tail is rigid and slightly elevation 1-10° from horizontal; 1.5=11-45 degree elevation with rigidity at the base of the tail; 2=46-90° elevation with rigidity at the base of the tail). For each measurement, each mouse is scored every 10 seconds for 1 minute, and the final score for each mouse at a given measurement point is the average of these 7 values. […] After the 17th irradiation, all mice were scored as described above immediately following tail radiation. […]

C=CCN1CC[C@]23c4c5ccc(O)c4O[C@H]2C(=O)CC[C@@]3(O)[C@H]1C5 [naloxone]
sensitivity to mechanical and thermal stimuli ([1]; mock-exposed mice, 10 mg/kg, compared to mock-exposed, saline-treated mice): increased sensitivity to mechanical and thermal stimuli
effect on radiation-induced changes in mechanical and thermal analgesic thresholds ([1]; tail-irradiated mice 5 Gy/day for 6 weeks, 10 mg/kg 15 minutes before testing, 10 mg/kg): prevented; also recorded: prevents changes in analgesic thresholds
sensitivity to mechanical and thermal stimuli ([1]; tail-irradiated mice, 10 mg/kg 15 minutes before testing, as the radiation regimen progressed): increased sensitivity to both mechanical and thermal stimuli
other withdrawal phenotypes (jumping, wet-dog shaking, teeth chattering, diarrhea) ([1]; tail-irradiated mice, upon naloxone injection, 10 mg/kg): not observed acutely
effect on Straub Tail score [2]: abolished to near mock-treated levels; also recorded: reversed the Straub Tail, similar to mock-treated levels
